This is an account of results in PubChem BioAssay (NCI).

Holding throughout (assay): NCI tumour cell line growth inhibition, 48 h
Assay [1] deals with SK-MEL-28 melanoma.
In assay [2] the test system is UO-31 renal.
Assay [3] concerns SNB-75 CNS.
The test system of assay [4] is SK-OV-3 ovarian.
Assay [5] deals with NCI-H226 lung.
The subject of assay [6] is NCI-H23 lung.
Assay [7] concerns ACHN renal.
For assay [8], the system named is HCT-15 colon.
Assay [9] has as its system NCI/ADR-RES ovarian.

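The compound was tested at five concentrations on cells cultured in 96-well plates, with a 48-hour exposure period. GI50: concentration for 50% inhibition of growth. At the TGI there is no net growth.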

Take `CN(C)N=Nc1ccc(S(N)(=O)=O)cc1`: the TGI in [1], in [2], in assay [3], in assay [4], in assay [5] and in assay [6] was greater than 100 µM each time. Also, the TGI in [7] and in assay [8] was greater than 100 µM in each case.

For the compound `CSc1nnc(C(C#N)C#N)nn1`, the TGI in [2], in assay [3], in assay [4], in [5], in [6] and in [8] was greater than 100 µM in each case.

Regarding `CC(=O)C1C(=O)C(=O)N(CCN2C(=O)C(=O)C(C(C)=O)C2=O)C1=O` (configuration not stated), the TGI in assay [1], in [2], in assay [3], in [4], in assay [5] and in assay [6] was greater than 100 µM throughout. For the same compound, the TGI in assay [7] and in [8] was greater than 100 µM in each case.

As for `N#CC1=C(N)OC2=C(CCOc3c2ccc2ccccc32)C1c1ccc(Br)cc1` (configuration not stated), the GI50 in assay [1] is 61.5 µM; in [2], greater than 100 µM; in assay [4], 28.8 µM; in [6], 32.8 µM; in [9], 33.4 µM; in assay [7], 41.3 µM. Moreover, in [8], the GI50 is 31 µM. For the same compound, the TGI in assay [1], in assay [2], in assay [4], in assay [6], in assay [9] and in assay [7] was greater than 100 µM each time. Further, the TGI in [8] is greater than 100 µM.

As for `CCOC(=O)C1C(=O)CC(=O)C2CCCCC21` (configuration not stated), the TGI in assay [1], in [2], in assay [3], in assay [4], in assay [6] and in [7] was greater than 100 µM each time. In addition, the TGI in assay [8] was greater than 100 µM.

As for `COc1ccc2c(c1)[n+]([O-])c(-c1ccccc1Cl)c(N)[n+]2[O-]`, the TGI in [1], in assay [2], in assay [3], in assay [4], in assay [5] and in [6] was greater than 100 µM each time. Also, the TGI in assay [7] and in assay [8] was greater than 100 µM throughout.

Turning to `CCN(CC)c1c(C)nnn1C1OC(COC(C)=O)C(OC(C)=O)C(OC(C)=O)C1OC(C)=O` (configuration not stated), the TGI in assay [1], in assay [2], in assay [3], in assay [4], in assay [5] and in [6] was greater than 100 µM in each case. Moreover, the TGI in [7] and in assay [8] was greater than 100 µM each time.

For the compound `COc1cc(O)c(C(=O)/C=C/c2ccc(OC)c(OCc3ccccc3)c2)c(OC)c1`, the TGI in assay [2], in [3], in assay [4], in assay [5], in assay [6] and in assay [7] was greater than 100 µM each time. In assay [8], this compound showed a TGI greater than 100 µM.

Take `O=C(CCc1ccccc1)CC1OC(=O)C(Cl)=C1Cl` (configuration not stated): the TGI is 32.9 µM in assay [1]; 34 µM in assay [2]; greater than 100 µM in assay [3]; greater than 100 µM in assay [4]; 53.4 µM in assay [6]; 38.6 µM in assay [7]. The compound also yielded a TGI in assay [8] of 30.3 µM.

For the compound `Cc1[nH]c2cc([N+](=O)[O-])ccc2c1[N+](=O)[O-]`, the TGI in assay [1] stood at 77.8 µM; in assay [2], 36.2 µM; in assay [3], 57.5 µM; in [5], 71.8 µM; in [6] it was 58.6 µM; in [7] it was 50.3 µM.

As to `Cc1ccc(S(=O)(=O)NNS(C)(=O)=O)cc1`, the TGI in assay [2], in [3], in assay [6], in assay [7] and in assay [8] was greater than 100 µM in each case.

`N#Cc1ccc(C2SCc3nc4ccccc4n32)cc1` (configuration not stated): the TGI in assay [1] was greater than 100 µM; in assay [2], 73.6 µM; in [3], greater than 100 µM; in assay [4] it was greater than 100 µM; in assay [6], greater than 100 µM; in assay [7], greater than 100 µM. Besides, the TGI in assay [8] was greater than 100 µM.

For `CCN(CC)C(=S)SS(C)(=O)=O`, the TGI in assay [2] was 37.3 µM; in assay [3], greater than 100 µM; in [4] it was greater than 100 µM; in [5] it was 31.3 µM; in assay [6], 35.4 µM; in [7], 31.8 µM. In assay [8], this compound had a TGI of 26.2 µM.

Regarding `CC1(C)C(=O)/C=C\C(=O)C(C)(C)C(=O)/C=C\C(=O)C(C)(C)C2=CC=C(O2)C(C)(C)C(=O)/C=C\C1=O`, the TGI was found to be 10 µM in assay [1]; 28.3 µM in [2]; 20.2 µM in assay [3]; 22.9 µM in [4]; 18.1 µM in [5]; 15.6 µM in [6]. Also, the results for the TGI in assay [7] and in [8] were 12.6 µM and 7.69 µM, respectively.

Consider `N#CC(/C(CCCC(=O)Nc1cccc([N+](=O)[O-])c1)=N\NC(=O)c1c(O)ccc2ccccc12)c1nc2ccccc2s1` (configuration not stated), for which the TGI in [1] is greater than 100 µM; in assay [2] it was greater than 100 µM; in [3], greater than 100 µM; in [4], greater than 100 µM; in assay [5], 72 µM; in assay [6] it was greater than 100 µM. The compound also gave a TGI in assay [7] greater than 100 µM.

`COc1ccc(C(=O)C(C(=O)C(=O)NCCCNC(=O)C(=O)C(C(=O)c2ccc(OC)cc2)c2ccc(OC)cc2)c2ccc(OC)cc2)cc1` (configuration not stated): the TGI in assay [1], in assay [2], in assay [3], in assay [4], in assay [5] and in assay [6] was greater than 100 µM throughout. Further, the TGI in [8] was greater than 100 µM.

`COC1/C(=C\C(C)=O)c2ccccc2N1C(C)=O` (configuration not stated): the TGI in assay [1], in assay [2], in assay [3], in [4], in assay [6] and in assay [7] was greater than 100 µM throughout. In assay [8], this compound gave a TGI greater than 100 µM.

On to `Cc1ccc(S(=O)(=O)C2CC2(Cl)Cl)cc1` (configuration not stated), for which the TGI in assay [1] was greater than 100 µM; in [2] it was greater than 100 µM; in assay [3], greater than 100 µM; in assay [4] it was greater than 100 µM; in [5], greater than 100 µM; in assay [6], 62.5 µM. In addition, the values for the TGI in [7] and in assay [8] were 70.8 µM and 55.4 µM, respectively.

For the compound `O=C(N/C(=C\c1ccc(/C=C(\NC(=O)c2ccccc2)c2nc3c(O)nc(S)nc3[nH]2)cc1)c1nc2c(O)nc(S)nc2[nH]1)c1ccccc1`, the TGI in assay [1] is greater than 100 µM; in assay [2] it was greater than 100 µM; in assay [3] it was 84.7 µM; in assay [4], greater than 100 µM; in assay [6], greater than 100 µM; in [7] it was greater than 100 µM. In assay [8], this compound returned a TGI greater than 100 µM.

In the case of `CC1=C2C=CC(=O)C[C@@]2(C)CCC1`, the TGI in assay [1], in [2], in assay [3], in assay [4], in assay [6] and in [7] was greater than 100 µM throughout. The TGI in assay [8] is greater than 100 µM.

In the case of `CCN(CC)c1ccc(C2N3CCCCC3[C@@H]3c4[nH]c5ccccc5c4CCN23)cc1` (some centres not stated), the TGI in assay [1] is 58 µM; in assay [2], greater than 100 µM; in [3], 29.1 µM; in assay [4] it was greater than 100 µM; in assay [6], greater than 100 µM; in [7], 74.7 µM. Besides, the TGI in assay [8] is greater than 100 µM.

As for `Cc1cc(Br)ccc1N=Nc1c(C)nn(-c2ccccc2)c1-c1ccccc1`, the TGI in assay [1], in assay [2], in assay [3], in assay [4], in assay [6] and in [7] was greater than 100 µM each time. In addition, the TGI in assay [8] was greater than 100 µM.

`CC(=O)CC(=O)Nc1ccccc1C(F)(F)F`: the TGI in [1], in assay [2], in [3], in assay [4], in assay [5] and in assay [6] was greater than 100 µM in each case. For the same compound, the TGI in [7] and in [8] was greater than 100 µM throughout.

In the case of `CC(=O)[CH-]C(=O)c1ccccc1.CC(=O)[CH-]C(=O)c1ccccc1.CC(=O)[CH-]C(=O)c1ccccc1.[Ga+3]`, the GI50 in assay [1] was 16.5 µM; in [2], 26.7 µM; in assay [3] it was 20.3 µM; in [4], 20.1 µM; in assay [5] it was 16.8 µM; in [6], 20.2 µM. Besides, the GI50 was 30.3 µM in assay [7] and 18.2 µM in [8]. Moreover, the TGI in assay [1] was 30.9 µM; in assay [2], 76.2 µM; in [3], 69.3 µM; in assay [4] it was 38.2 µM; in [5] it was 43.5 µM; in assay [6] it was 48.3 µM. Besides, the TGI in [7] and in assay [8] was greater than 100 µM throughout.
